Assay results as given in patent US20260200982A1, “HER RECEPTOR DERIVED PEPTIDES AND METHODS OF USE THEREOF” (Ramot at Tel-Aviv University Ltd., priority 2022, published 2026).
The star is where a group is joined. Myristoyl = CCCCCCCCCCCCCC(=O)*

Legend:
DLD-1 colon cancer cells = assay type: cell-based, human; settings: DLD-1; 72 hours; FIGS. 4B and 4C; read-out: IC50 (cell viability)
Excerpt: (§1) Cell lines—Human breast cancer cell lines SKBR3 [Peles E et al. EMBO J. (1993) 12(3):961-71] and MCF7 [Faigenbloom L et al., Mol Syst Biol. (2015) 11(12):845] and human glioblastoma U87 [Goldberg L et al. Cancer Res. (2006) 66(24):11709-17] cell line, as well as Rat-1 fibroblast cells and H-Ras-transformed Rat-1 cells (EJ cells) [Marom M et al. J Biol Chem. (1995) 270(38):22263-70] and human Panc-1 and MIA PaCa-2 pancreatic cell lines (Rak R et al. Oncoscience. 2014 1(1):39-48; Weisz B et al. Oncogene (1999) 18, 2579±2588) were all grown in Dulbecco's modified Eagle's medium (DMEM; Biological Industries, Beithaemek, Israel). Human colorectal cancer cell lines DLD-1 (ATTC Cat No. CCL-221), HCT-116 (ATTC Cat No. CCL-247) and LNCaP prostate cancer cells were grown in Roswell Park Memorial Institute 1640 (RPMI 1640) medium and McCoy's 5A media, respectively (Sigma-Aldrich). All media were supplemented with antibiotics and 10% heat-inactivated fetal bovine serum (FBS; Gibco). Human breast cell line MCF10A [Bott A et al. Oncotarget. (2017) 8(27):43897-43914] was grown in Dulbeco's Modified Eagle's Medium/Nutrient Mixture F-12 HAM medium (DMEM F-12 HAM; Sigma-Aldrich), supplemented with antibiotics, 5% inactivated horse serum (HS; Invitrogen), 2 mM L-glutamine (Biological Industries, Beithaemek, Israel), 0.1 μg/ml cholera toxin (Sigma-Aldrich), 0.5 μg/ml hydrocortisone (Sigma-Aldrich), 10 μg/ml insulin (Biological Industries, Beithaemek, Israel) and 2 ng/ml EGF (R&D Systems). Cells were incubated at 37° C. in 5% CO2 in air, and the medium was changed every 3-4 days. Cells were passaged in trypsin/disodium ethylenediaminetetraacetic acid (Biological Industries, Beithaemek, Israel) when confluency reached 70%. One day prior to treatment the cells were plated at ~50% confluency in a medium supplemented with 10% FBS or 5% HS, accordingly.
(§2) Methylene blue viability assay—Cells were plated in 96-wells plates at cell densities of 1.5×10^3 (EJ, DLD-1), 3×10^3 (Rat-1, HCT-116, U87), 5×10^3 (SKBR3, MCF7) and 6×10^3 (MCF10A) cells/well. On the following day, cells were treated as indicated, and grown for 72 hours. Cell number determination was performed as described previously. IC-50 values were calculated using a non-linear regression model (logarithmic inhibitor vs. normalized response-variable slope) with the GraphPad Prism 6 software.

[1] = tested on: HCT-116 colon cancer cells; assay type: cell-based, human; settings: HCT116; 72 hours; FIGS. 4B and 4C; read-out: IC50 (cell viability)
Excerpt: as §1, §2

[2] = tested on: Panc-1 pancreatic cancer cells; assay type: cell-based, human; settings: Panc 1; 72 hours; FIGS. 4B and 4C; read-out: IC50 (cell viability)
Excerpt: as §1, §2

U87 glioma cells = assay type: cell-based, human; settings: U87; 72 hours; FIGS. 4B and 4C; read-out: IC50 (cell viability)
Excerpt: as §1, §2

[3] = tested on: H-Ras-transformed Rat-1 cells (EJ cells); assay type: cell-based; settings: FIG. 4C
Excerpt: Cell lines—Human breast cancer cell lines SKBR3 [Peles E et al. EMBO J. (1993) 12(3):961-71] and MCF7 [Faigenbloom L et al., Mol Syst Biol. (2015) 11(12):845] and human glioblastoma U87 [Goldberg L et al. Cancer Res. (2006) 66(24):11709-17] cell line, as well as Rat-1 fibroblast cells and H-Ras-transformed Rat-1 cells (EJ cells) [Marom M et al. J Biol Chem. (1995) 270(38):22263-70] and human Panc-1 and MIA PaCa-2 pancreatic cell lines (Rak R et al. Oncoscience. 2014 1(1):39-48; Weisz B et al. Oncogene (1999) 18, 2579±2588) were all grown in Dulbecco's modified Eagle's medium (DMEM; Biological Industries, Beithaemek, Israel). Human colorectal cancer cell lines DLD-1 (ATTC Cat No. CCL-221), HCT-116 (ATTC Cat No. CCL-247) and LNCaP prostate cancer cells were grown in Roswell Park Memorial Institute 1640 (RPMI 1640) medium and McCoy's 5A media, respectively (Sigma-Aldrich). All media were supplemented with antibiotics and 10% heat-inactivated fetal bovine serum (FBS; Gibco). Human breast cell line MCF10A [Bott A et al. Oncotarget. […]
as §2, with “On the following day, cells were treated as indicated, and grown for 72 hours. Cell number determination was performed as described previously.” left out

DLD-1 cells = assay: Colony formation assay, DLD-1; assay type: cell-based, human; settings: 20 μM, 72 hours, FIG. 12
Method: Colony formation assay—Cells were plated onto 12-well plate (6×10^4 cells/well) and treated with either PBS or myr-NLS at the IC50 concentration for 3 days. Cells were collected and replated in 10-cm plates (at 3 dilutions of 1:10, 1:20 and 1:40). After 7-14 days when visible and yet separated colonies were formed, the cells were fixed with 0.1% acetic acid in PBS, and stained with 0.4% crystal violet in 0.1% acetic acid. Total colonies area was calculated using the ImageJ program.
In addition, a colony formation assay was conducted to further examine the anti-tumor effect of the myr-NLS (SEQ ID NO: 5), myr-NLS2 (SEQ ID NO: 15) and myr-NLS4 (SEQ ID NO: 17) peptides. To this end, DLD-1 cells were treated or untreated for 72 hours with 20 μM of the myr-peptides. Cells were then seeded at the same dilutions in new plates until colonies were formed.

EGFR (ErbB1) = assay: Western blot analysis of dissected Panc-1 tumors, EGFR; assay type: in vivo, human; settings: Panc-1 tumor lysates
Method: (§3) Pancreatic Tumor Growth in Nude Mice—The study was conducted according to the NIH Guidelines for Use and Care of Laboratory Animals and following the approval by Animal Care Committee of the Tel Aviv University. Nude CD1-Nu mice (25-30 g) housed in barrier facilities on a 12-h light/dark cycle one week prior to the injection of tumor cells (day zero). On day zero, 2×10^6 Panc 1 cells in 0.1 ml of PBS were implanted subcutaneously just above the right femoral joint. Tumor size was measured every 3-4 days. When the tumors were apparently seen and the calculated tumor size was 40 mm^3, the animals were divided randomly into two groups of mice (control vehicle treated and myr-NLS (SEQ ID NO: 5) treated; 8 mice per group). Treatment with the myr-NLS (SEQ ID NO: 5) was performed by intraperitoneal injection of 25 μg in 100 μl PBS (or 100 μl PBS for control mice) every day. Tumors size was measured 3 times a week. At the end of the experiment, the mice were sacrificed, and the tumors were dissected and used for further analysis.
Western blot analysis—Half of each tumor was homogenized in lysis buffer, using a Potter-Elvehjem manual homogenizer, cleared and kept at −70° C. The lysates (30 μg) were resolved by SDS-polyacrylamide gel electrophoresis (SDS-PAGE) and transferred to nitrocellulose membranes. The membranes were blocked with TBST buffer containing 6% milk and reacted with the indicated primary antibodies followed by second antibodies. Immunoreactive bands were detected with the enhanced chemiluminescence reagent (Luminata Crescendo Western HRP). Densitometric quantification analysis of the resulted images was done using ImageJ program.
Following, the present inventors examined whether the reduction of the tumor growth rate correlates with alterations expression and activation of the relevant proteins. To this end, lysates were prepared form the dissected tumors for protein levels evaluations. The tumor lysates were processed for western blot analysis (30 μg protein, 10% SDS polyacrylamide gel electrophoresis) and protein levels were determined using the indicated antibodies.

ErbB2 = assay: Western blot analysis of dissected Panc-1 tumors, ErbB2; assay type: in vivo, human; settings: Panc-1 tumor lysates; FIGS. 10A-C
Method: as §3
Western blot analysis—Half of each tumor was homogenized in lysis buffer, using a Potter-Elvehjem manual homogenizer, cleared and kept at −70° C. […] Immunoreactive bands were detected with the enhanced chemiluminescence reagent (Luminata Crescendo Western HRP). Densitometric quantification analysis of the resulted images was done using ImageJ program. […]

IC50 (DLD-1 colon cancer cells): 34.2 µM
IC50 [1]: 12.8 µM
IC50 [2]: 8.1 µM
IC50 (U87 glioma cells): 32.2 µM
Substance: Myr-RRRHIVRKRTLRRLL-OH (Myristoyl-RRRHIVRKRTLRRLL-OH; SMILES CCCCCCCCCCCCCC(=O)N[C@@H](CCCNC(=N)N)C(=O)N[C@@H](CCCNC(=N)N)C(=O)N[C@@H](CCCNC(=N)N)C(=O)N[C@@H](Cc1c[nH]cn1)C(=O)N[C@H](C(=O)N[C@H](C(=O)N[C@@H](CCCNC(=N)N)C(=O)N[C@@H](CCCCN)C(=O)N[C@@H](CCCNC(=N)N)C(=O)N[C@H](C(=O)N[C@@H](CC(C)C)C(=O)N[C@@H](CCCNC(=N)N)C(=O)N[C@@H](CCCNC(=N)N)C(=O)N[C@@H](CC(C)C)C(=O)N[C@@H](CC(C)C)C(=O)O)[C@@H](C)O)C(C)C)[C@@H](C)CC) [myr-NLS]
viability of Rat-1 fibroblast cells transformed with constitutive Ras (EJ) [3]: decreased viability
colony formation (total colonies area) (DLD-1 cells): fewer and smaller colonies
ratio between EGFR and its phosphorylation state (activation of the EGFR) (EGFR (ErbB1); FIG. 10C): affected the activation of the EGFR
expression levels of EGFR in tumors (EGFR (ErbB1); FIGS. 10A-C): reduced
levels of phosphorylated EGFR in tumors (EGFR (ErbB1); FIGS. 10A-C): reduced
levels of total ErbB2 in tumors (ErbB2): reduced
phosphorylated ErbB2 expression in tumors (ErbB2): reduced
